Experimental findings from patent US20230365592A1 (Agios Pharmaceuticals, Inc., priority 2022, published 2023) are described below.

This test has as its target T1, human PAH with the R408W mutation (Homo sapiens, UniProt P00439, R408W).
T1 construct: expressed in transfected cells
T1 sequence (P00439 1-452 R408W): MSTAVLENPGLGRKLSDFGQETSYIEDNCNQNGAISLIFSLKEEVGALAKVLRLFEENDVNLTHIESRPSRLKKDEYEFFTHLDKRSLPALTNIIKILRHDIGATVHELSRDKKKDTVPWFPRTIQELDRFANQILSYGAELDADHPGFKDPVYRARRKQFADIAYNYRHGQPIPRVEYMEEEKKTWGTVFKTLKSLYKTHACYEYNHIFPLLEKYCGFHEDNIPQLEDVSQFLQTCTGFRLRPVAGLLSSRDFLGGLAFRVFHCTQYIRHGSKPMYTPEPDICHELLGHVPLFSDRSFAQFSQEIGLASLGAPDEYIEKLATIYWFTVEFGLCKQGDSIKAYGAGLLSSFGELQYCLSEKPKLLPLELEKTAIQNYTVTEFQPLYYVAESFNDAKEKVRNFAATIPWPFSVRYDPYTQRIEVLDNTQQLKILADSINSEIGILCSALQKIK
The experiment in a line: Cell Based Phenylalanine Flux Assay.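 Also: after compound treatment, cells received sepiapterin plus isotope-labelled Phenylalanine for 4 hours, then labelled Tyrosine in the medium was quantified, 10-point 2-fold dilution series run in duplicate.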 The settings on record: A375 cells expressing human R408W PAH; 24 hrs compound incubation; 13C-Tyrosine by LC-MS; average where tested multiple times; read-out: AC50.

The structures appear in SMILES notation.

Broadly, the AC50 is the midpoint of the concentration-response curve, whichever way the signal moves. In the case of `CC(C)(F)c1nnc(C(=O)N2CCc3[nH]cnc3[C@@H]2c2cc3cccc(F)n3n2)o1` [Example 986, (R)-(5-(2-fluoropropan-2-yl)-1,3,4-oxadiazol-2-yl)(4-(7-fluoropyrazolo[1,5-a]pyridin-2-yl)-6,7-dihydro-1H-imidazo[4,5-c]pyridin-5(4H)-yl)methanone], the AC50 lay within 1 to 5 µM.
On to `CC(C)(F)c1nnc(C(=O)N2CCc3[nH]cnc3[C@H]2c2cc3cccc(F)n3n2)o1` [Example 987, (S)-(5-(2-fluoropropan-2-yl)-1,3,4-oxadiazol-2-yl)(4-(7-fluoropyrazolo[1,5-a]pyridin-2-yl)-6,7-dihydro-1H-imidazo[4,5-c]pyridin-5(4H)-yl)methanone], for which the AC50 was 0.5 to 1 µM.
The same measure for `Cc1cccn2nc([C@@H]3c4nc[nH]c4CCN3C(=O)c3nnc(-c4cnn(C)c4C)o3)cc12` [Example 988, (S)-(5-(1,5-dimethyl-1H-pyrazol-4-yl)-1,3,4-oxadiazol-2-yl)(4-(4-methylpyrazolo[1,5-a]pyridin-2-yl)-6,7-dihydro-1H-imidazo[4,5-c)pyridin-5(4H)-yl)methanone]: less than 0.5 µM; for `Cc1cccn2nc([C@H]3c4nc[nH]c4CCN3C(=O)c3nnc(-c4cnn(C)c4C)o3)cc12` [Example 989, (R)-(5-(1,5-dimethyl-1H-pyrazol-4-yl)-1,3,4-oxadiazol-2-yl)(4-(4-methylpyrazolo[1,5-a]pyridin-2-yl)-6,7-dihydro-1H-imidazo[4,5-c]pyridin-5(4H)-yl)methanone]: 1 to 5 µM; for `CC(C)(O)c1nc(Cl)c(C(=O)N2CCc3[nH]cnc3[C@H]2c2cc3ccccn3n2)o1` [Example 990, (S)-(4-chloro-2-(2-hydroxypropan-2-yl)oxazol-5-yl)(4-(pyrazolo[1,5-a]pyridin-2-yl)-6,7-dihydro-1H-imidazo[4,5-c]pyridin-5(4H)-yl)methanone]: 0.5 to 1 µM.
The same measure for `Cc1nc(C(C)(C)C#N)oc1C(=O)N1CCc2[nH]cnc2[C@H]1c1cc2ccccn2n1` [Example 992, (S)-2-methyl-2-(4-methyl-5-(4-(pyrazolo[1,5-a]pyridin-2-yl)-4,5,6,7-tetrahydro-1H-imidazo[4,5-c]pyridine-5-carbonyl)oxazol-2-yl)propanenitrile]: 0.5 to 1 µM; for `O=C(c1oc(C2(O)CC2)nc1C(F)F)N1CCc2[nH]cnc2[C@H]1c1cc2ccccn2n1` [Example 994, (S)-(4-(difluoromethyl)-2-(1-hydroxycyclopropyl)oxazol-5-yl)(4-(pyrazolo[1,5-a]pyridin-2-yl)-6,7-dihydro-1H-imidazo[4,5-c]pyridin-5(4H)-yl)methanone]: less than 0.5 µM.
The same measure for `Cc1nc(C(C)(C)O)oc1C(=O)N1CCc2[nH]cnc2[C@H]1c1cc2c(F)cccn2n1` [Example 1000, (S)-(4-(4-fluoropyrazolo[1,5-a]pyridin-2-yl)-6,7-dihydro-1H-imidazo[4,5-c]pyridin-5(4H)-yl)(2-(2-hydroxypropan-2-yl)-4-methyloxazol-5-yl)methanone]: 0.5 to 1 µM; for `O=C(c1ocnc1C(F)F)N1CCc2[nH]cnc2[C@@H]1c1cc2c(C(F)(F)F)cccn2n1` [Example 1003, (R)-(4-(difluoromethyl)oxazol-5-yl)(4-(4-(trifluoromethyl)pyrazolo[1,5-a]pyridin-2-yl)-6,7-dihydro-1H-imidazo[4,5-c]pyridin-5(4H)-yl)methanone]: 0.5 to 1 µM.
Turning to `Cc1ccn2nc([C@H]3c4nc[nH]c4CCN3C(=O)c3ocnc3C(F)F)cc2c1` [Example 1005, (R)-(4-(difluoromethyl)oxazol-5-yl)(4-(5-methylpyrazolo[1,5-a]pyridin-2-yl)-6,7-dihydro-1H-imidazo[4,5-c]pyridin-5(4H)-yl)methanone], the AC50 was less than 0.5 µM.
The same measure for `O=C(c1oc(-c2ccccn2)nc1C(F)F)N1CCc2[nH]cnc2[C@@H]1c1cc2c(F)cccn2n1` [Example 1007, (R)-(4-(difluoromethyl)-2-(pyridin-2-yl)oxazol-5-yl)(4-(4-fluoropyrazolo[1,5-a]pyridin-2-yl)-6,7-dihydro-1H-imidazo[4,5-c]pyridin-5(4H)-yl)methanone]: 0.5 to 1 µM.
The value for `Cc1cccn2nc([C@H]3c4nc[nH]c4CCN3C(=O)c3oc(-c4cnn(C)c4)nc3C(F)F)cc12` [Example 1009, (R)-(4-(difluoromethyl)-2-(1-methyl-1H-pyrazol-4-yl)oxazol-5-yl)(4-(4-methylpyrazolo[1,5-a]pyridin-2-yl)-6,7-dihydro-1H-imidazo[4,5-c]pyridin-5(4H)-yl)methanone] was 0.5 to 1 µM; that for `Cc1nnc(C(=O)N2CCc3[nH]cnc3[C@H]2c2cc3c(C)cccn3n2)o1` [Example 1010, (S)-(5-methyl-1,3,4-oxadiazol-2-yl)(4-(4-methylpyrazolo[1,5-a]pyridin-2-yl)-6,7-dihydro-1H-imidazo[4,5-c)pyridin-5(4H)-yl)methanone] was 0.5 to 1 µM; that for `Cc1cccn2nc([C@@H]3c4nc[nH]c4CCN3C(=O)c3nnc(N4CCC(F)CC4)o3)cc12` [Example 1012, (S)-(5-(4-fluoropiperidin-1-yl)-1,3,4-oxadiazol-2-yl)(4-(4-methylpyrazolo[1,5-a]pyridin-2-yl)-6,7-dihydro-1H-imidazo[4,5-c]pyridin-5(4H)-yl)methanone] was 0.5 to 1 µM.
Take `Cc1cccn2nc([C@H]3c4nc[nH]c4CCN3C(=O)c3nnc(N4CCC(F)CC4)o3)cc12` [Example 1013, (R)-(5-(4-fluoropiperidin-1-yl)-1,3,4-oxadiazol-2-yl)(4-(4-methylpyrazolo[1,5-a]pyridin-2-yl)-6,7-dihydro-1H-imidazo[4,5-c]pyridin-5(4H)-yl)methanone]: the AC50 is more than 5 µM.
The value for `O=C(c1nnc(N2CCC(F)CC2)o1)N1CCc2[nH]cnc2[C@H]1c1cc2c(F)cccn2n1` [Example 1014, (S)-(5-(4-fluoropiperidin-1-yl)-1,3,4-oxadiazol-2-yl)(4-(4-fluoropyrazolo[1,5-a]pyridin-2-yl)-6,7-dihydro-1H-imidazo[4,5-c]pyridin-5(4H)-yl)methanone] was less than 0.5 µM.
For `O=C(c1nnc(N2CCC(F)CC2)o1)N1CCc2[nH]cnc2[C@@H]1c1cc2c(F)cccn2n1` [Example 1015, (R)-(5-(4-fluoropiperidin-1-yl)-1,3,4-oxadiazol-2-yl)(4-(4-fluoropyrazolo[1,5-a]pyridin-2-yl)-6,7-dihydro-1H-imidazo[4,5-c]pyridin-5(4H)-yl)methanone], the AC50 is more than 5 µM.
Turning to `Cc1cccn2nc([C@@H]3c4nc[nH]c4CCN3C(=O)c3nnc(-c4ccnn4C)o3)cc12` [Example 1016, (S)-(5-(1-methyl-1H-pyrazol-5-yl)-1,3,4-oxadiazol-2-yl)(4-(4-methylpyrazolo[1,5-a]pyridin-2-yl)-6,7-dihydro-1H-imidazo[4,5-c]pyridin-5(4H)-yl)methanone], the AC50 was less than 0.5 µM.
For `Cc1cccn2nc([C@H]3c4nc[nH]c4CCN3C(=O)c3nnc(-c4ccnn4C)o3)cc12` [Example 1017, (R)-(5-(1-methyl-1H-pyrazol-5-yl)-1,3,4-oxadiazol-2-yl)(4-(4-methylpyrazolo[1,5-a]pyridin-2-yl)-6,7-dihydro-1H-imidazo[4,5-c]pyridin-5(4H)-yl)methanone], the AC50 is more than 5 µM.
`Cn1nccc1-c1nnc(C(=O)N2CCc3[nH]cnc3[C@H]2c2cc3c(F)cccn3n2)o1` [Example 1018, (S)-(4-(4-fluoropyrazolo[1,5-a]pyridin-2-yl)-6,7-dihydro-1H-imidazo[4,5-c]pyridin-5(4H)-yl)(5-(1methyl-1H-pyrazol-5-yl)-1,3,4-oxadiazol-2-yl)methanone]: the half-maximal activity concentration (AC50) was less than 0.5 µM.
As for `Cn1nccc1-c1nnc(C(=O)N2CCc3[nH]cnc3[C@@H]2c2cc3c(F)cccn3n2)o1` [Example 1019, (R)-(4-(4-fluoropyrazolo[1,5-a]pyridin-2-yl)-6,7-dihydro-1H-imidazo[4,5-c]pyridin-5(4H)-yl)(5-(1-methyl-1H-pyrazol-5-yl)-1,3,4-oxadiazol-2-yl)methanone], the AC50 was more than 5 µM.
Consider `Cc1cccc2cc([C@@H]3c4nc[nH]c4CCN3C(=O)c3nnc(C(C)(C)C)o3)nn12` [Example 1020, (S)-(5-(tert-butyl)-1,3,4-oxadiazol-2-yl)(4-(7-methylpyrazolo[1,5-a]pyridin-2-yl)-6,7-dihydro-1H-imidazo[4,5-c]pyridin-5(4H)-yl)methanone], for which the AC50 is less than 0.5 µM.
The same measure for `Cc1cccc2cc([C@H]3c4nc[nH]c4CCN3C(=O)c3nnc(C(C)(C)C)o3)nn12` [Example 1021, (R)-(5-(tert-butyl)-1,3,4-oxadiazol-2-yl)(4-(7-methylpyrazolo[1,5-a]pyridin-2-yl)-6,7-dihydro-1H-imidazo[4,5-c]pyridin-5(4H)-yl)methanone]: 1 to 5 µM.
The value for `CC(C)(F)c1nnc(C(=O)N2CCc3[nH]cnc3[C@H]2c2cc3c(F)cccn3n2)o1` [Example 1024, (S)-(5-(2-fluoropropan-2-yl)-1,3,4-oxadiazol-2-yl)(4-(4-fluoropyrazolo[1,5-a]pyridin-2-yl)-6,7-dihydro-1H-imidazo[4,5-c]pyridin-5(4H)-yl)methanone] was less than 0.5 µM; that for `CC(C)(F)c1nnc(C(=O)N2CCc3[nH]cnc3[C@@H]2c2cc3c(F)cccn3n2)o1` [Example 1025, (R)-(5-(2-fluoropropan-2-yl)-1,3,4-oxadiazol-2-yl)(4-(4-fluoropyrazolo[1,5-a]pyridin-2-yl)-6,7-dihydro-1H-imidazo[4,5-c]pyridin-5(4H)-yl)methanone] was 1 to 5 µM.
